One data set can be described thus: PAMPA-GIT. The conditions noted are these: for classification / experimental fraction absorption: PAMPA-GIT; for classification: fraction absorption classification; for Papp at 8 h, 500 μM: PAMPA. Background: PAMPA measures passive passage across an artificial lipid membrane.
For data set [1] the following is noted: QC standards; ref Zhu et al.[29]; cited from earlier work.

A word on the Papp: it is the rate of passage across a membrane or cell layer, normalised by area and donor concentration.

Turning to `CC(C)NCC(O)COc1ccc(CC(N)=O)cc1` (stereo not shown) [atenolol], the classification entry in the data set “PAMPA-GIT” was “low (Low, 0–29% Fa)”. On to `Cn1c(=O)c2c(ncn2C)n(C)c1=O` [caffeine], for which the classification result in the data set “PAMPA-BBB” is recorded as “BBB– (Pe values <1.57 were classified as nonpermeable (BBB−))”. For `CO/N=C(\C(=O)N[C@@H]1C(=O)N2C(C(=O)O)=C(CSc3nc(=O)c(=O)[nH]n3C)CS[C@H]12)c1csc(N)n1` [ceftriaxone], in data set [1], the literature fraction absorption is listed as 1%.

In the case of `O=c1ccc2ccccc2o1` [coumarin], in the data set “PAMPA-GIT”, the Papp at 8 h, 500 μM was determined as 27.9 ×10⁻⁶ cm/s; the experimental fraction absorption is 100.00%; the classification result is recorded as “high (High, 70–100% Fa)”. For the molecule `O=C(O)Cc1ccccc1Nc1c(Cl)cccc1Cl` [diclofenac], in data set [1], the literature fraction absorption is 100%. In addition, in the data set “PAMPA-GIT”, the Papp at 8 h, 500 μM was determined as 14 ×10⁻⁶ cm/s; the experimental fraction absorption is reported as 100.00%; the classification entry was “high (High, 70–100% Fa)”. As for `CCn1cc(C(=O)O)c(=O)c2cc(F)c(N3CCNCC3)nc21` [enoxacin], the classification entry in the data set “PAMPA-BBB” is recorded as “BBB– (Pe values <1.57 were classified as nonpermeable (BBB−))”. The molecule `C[C@]12CCC(=O)C=C1CC[C@@H]1[C@@H]2[C@@H](O)C[C@@]2(C)[C@H]1CC[C@]2(O)C(=O)CO` [hydrocortisone] displayed an experimental fraction absorption in the data set “PAMPA-GIT” of 100.00%. `CCn1cc(C(=O)O)c(=O)c2cc(F)c(N3CCNCC3)cc21` [norfloxacin]: in “PAMPA-GIT”, the experimental fraction absorption amounted to 51.39% and the classification entry is “intermediate (Intermediate, 30–69% Fa)”. As for `CNC(=C[N+](=O)[O-])NCCSCc1ccc(CN(C)C)o1` [ranitidine], in “PAMPA-GIT”, the experimental fraction absorption is recorded as 49.75% and the classification entry is “intermediate (Intermediate, 30–69% Fa)”.
